One test concerns MOLT-4. The test is described as follows: NCI 60 cell line growth inhibition. The following applies: Homo sapiens; MOLT-4 line. Type of test: cell-based.
Test [1] concerns NCI panel of 60-cell lines. The test is described as follows: NCI 60 cell line growth inhibition. Type of test: cell-based. The settings on record: NCI 60 cell lines; read-out: average growth inhibition (GI50) in all the lines.
The target in a further test is APE-1 (Homo sapiens (Human), UniProt P27695). Description: Molecular beacon assay for APE-1 endonuclease inhibition. The test is classed as biochemical. The source says: Screening Assays for APE1 Inhibition—The initial screen was designed to look at the effect of potential inhibitors on APE1 repair kinetics. The approach can be used as a high throughput screen by choosing a specific timepoint to monitor. The screen utilizes a molecular beacon with a tetrahydrofuran (THF) abasic site within the stem region of a DNA hairpin that has a fluorophore on the 5′-terminus and a quencher on the 3′-terminus (FIG. 2a). […] An example of the molecular beacon screen and the excision assay are shown in FIGS. 2b,c and 2d, respectively.
Molecular Beacon Assay for Screening of APE-1 Inhibitors. A fluorescence-based molecular beacon assay to measure APE-1 protein activity and inhibition was performed as described previously with some modifications. Tang et al. Neuro Oncol. 13, 471-486 (2011) APE-1 (2 nM) in 10 mM HEPES (pH 7.8) 0.5 mM MgCl, 100 mM NaCl, 100 mM KCl, 0.0005% (w/v) BSA, was incubated with 20 nM 5′-(F)-CGACTXTTGAATTGACACGCCATGTCGATCAATTCAATAGTCG-(D)-3′ [X=tetrahydrofuran (THF) abasic site modification; F, 6-carboxyfluorescein (6-FAM); and D, DABCYL] that forms a hairpin with a 15 base pair stem and a 13 base loop. The THF modification is a known substrate for APE-1 excision. APE-1 mediated cleavage of the phosphodiester backbone at the THF-abasic site led to release of the 5′ 6-FAM (fluorophore) containing pentanucleotide, disrupting the Förster Resonance Energy Transfer (FRET) mediated quenching of the 6-FAM by DABCYL in the native hairpin oligomer. Since the signal was generated by continuous liberation of the fluorophore-labeled excision fragment, progress of this reaction could be monitored in real-time using a Cary Eclipse fluorescence spectrometer (Varian, Palo Alto, Calif.) or a Synergy H1 multi-well plate reader (BioTek, Winooski, Vt.). Reactions were optimized to yield ˜90% substrate turnover in 10 min, and fluorescence intensities measured every 12 s at 495 nm excitation and 520 nm emission. Data from the first 1-3 min of the assays (linear phase) were used to determine rate of substrate turnover (V0). The Michaelis constant (KM) was deduced experimentally, by incubating 2 nM APE-1 protein with 2-500 nM hairpin DNA substrate and measuring V0 —the experimentally observed V0 were analyzed as a function of substrate concentration [S] via non-linear regression using Prism (v.4; GraphPad Software, Inc., La Jolla, Calif.) and the KM was calculated as per the algorithm in the software package. To assay inhibition, 2 nM APE-1 protein was pre-incubated with 0.05-10.00 μM of the candidate inhibitors at 25° C. for 60 min, before initiating the excision assay by addition of hairpin DNA substrate. V0 was calculated at various concentrations of inhibitors and represented as inverse function of increasing inhibitor concentration [I]. […] All assays were carried out in three independent sets to obtain mean data and standard error of mean.
Screening for APE-1 Inhibitors. […] In this assay, the DNA hairpin substrate has a 6-FAM fluorophore on the 5′-terminus, a DABACYL fluorescence quencher on the 3′-terminus and a THF abasic site located 6 base pairs from the 5′-terminus in the stem region (FIG. 6). APE-1 activity is monitored as an increase in fluorescence due to the release of the 5′-(6-FAM)-GCACT fragment as a function of time. […] In this assay, substrate turnover was calculated from relative intensities of cleaved vs. intact oligomers and correlated with inhibitor concentration.

The subject of another test is SK-MEL-5 melanoma cells. Description: Combination of APE1 inhibitor 4 with approved anticancer drugs, NCI60 cell line assay. Type of test: cell-based. The settings on record: preliminary screen. The source says: FIG. 5. An example of the enhanced activity of vemurafenib in combination with APE1 inhibitor 4 in SK-MEL-5 melanoma cells. Matric controls are run in singlet on each matrix and compared to replicate (n=10) controls for vemurafenib and 4.
APE1 Inhibitor 4 Enhances the Toxicity of Anticancer Drugs in the NCl60 Cell Line Assay—In a preliminary screen using 10 randomly selected cell lines, the effect of APE1 inhibitor 4 on the growth of 20 recently approved non-genotoxic anticancer drugs was assayed.

Like-named read-outs stand apart in the source and are kept apart here.

Chain of APE-1 (P27695 whole entry): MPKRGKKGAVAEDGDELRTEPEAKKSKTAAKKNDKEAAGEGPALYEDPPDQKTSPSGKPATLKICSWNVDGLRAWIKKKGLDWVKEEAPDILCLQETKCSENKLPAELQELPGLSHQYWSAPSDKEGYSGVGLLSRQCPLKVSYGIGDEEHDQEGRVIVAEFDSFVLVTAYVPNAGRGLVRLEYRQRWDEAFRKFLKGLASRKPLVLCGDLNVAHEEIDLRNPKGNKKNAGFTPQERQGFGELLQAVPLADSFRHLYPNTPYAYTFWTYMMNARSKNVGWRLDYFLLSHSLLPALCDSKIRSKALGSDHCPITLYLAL

Regarding `CCn1c2ccccc2c2cc(/C=N/Nc3cc(C)nc4cc5c(cc34)OCO5)ccc21` [Compound 4], the GI50 (commonly the concentration giving 50% growth inhibition) with MOLT-4 turned out to be 133 nM; in test [1], 4400 ± 2600 nM. Besides, the inhibition constant Ki (as a rule, the dissociation constant of the complex between target and ligand, obtained from inhibition or displacement) is 120 nM on APE-1 (molecular beacon assay, endonuclease activity, read-out: Ki APE-1 endonuclease inhibition) and 345 nM at APE-1 (molecular beacon screen, read-out: Ki, inhibition curve FIG. 2(c)). Besides, the “effect in combination with Vemurafenib” value with SK-MEL-5 melanoma cells was “>additive”.
